Tests used:
Experiment in all cases: viability relative to DMSO control (fraction); higher = less drug effect (more viable cells)
Details in all cases: 48 h
[1] = system: primary ALL patient cells (S048)
Outline: (§1)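 Using 384-well plates with compounds already plated at five concentrations, one well per concentration, 4 × 10^4 primary mononuclear tumour cells were added per well. Cells were Ficoll-isolated from blood or bone marrow or came from processed lymph node, fresh or cryopreserved. They were kept for 48 h at 37 °C and 5% CO2 in RPMI-1640 supplemented with penicillin/streptomycin, L-glutamine and human serum, and viability was read as CellTiter-Glo luminescence relative to the median of 16 inner DMSO wells.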

[2] = system: primary ALL patient cells (S088)
Outline: as §1

[3] = system: primary AML patient cells (S006)
Outline: as §1

[4] = system: primary AML patient cells (S011)
Outline: as §1

[5] = system: primary AML patient cells (S012)
Outline: as §1

[6] = system: primary AML patient cells (S017)
Outline: as §1

[7] = system: primary AML patient cells (S021)
Outline: as §1

[8] = system: primary AML patient cells (S056)
Outline: as §1

[9] = system: primary AML patient cells (S060)
Outline: as §1

[10] = system: primary AML patient cells (S081)
Outline: as §1

[11] = system: primary AML patient cells (S085)
Outline: as §1

[12] = system: primary B-PLL patient cells (S016)
Outline: as §1

[13] = system: primary BL patient cells (S005)
Outline: as §1

[14] = system: primary CLL patient cells (S031)
Outline: as §1

[15] = system: primary CLL patient cells (S043)
Outline: as §1

[16] = system: primary FL patient cells (S022)
Outline: as §1

[17] = system: primary FL patient cells (S087)
Outline: as §1

[18] = system: primary MCL patient cells (S053)
Outline: as §1

[19] = system: primary MCL patient cells (S063)
Outline: as §1

[20] = system: primary MCL patient cells (S068)
Outline: as §1

Nc1cccc2c1CN(C1CCC(=O)NC1=O)C2=O (stereo not given) [Lenalidomide]
viability ([1]; 0.008 µM): 0.895
viability ([1]; 0.04 µM): 0.751
viability ([1]; 0.2 µM): 0.609
viability ([1]; 1 µM): 0.548
viability ([1]; 5 µM): 0.488
viability ([2]; 0.008 µM): 1.07
viability ([2]; 0.04 µM): 1.05
viability ([2]; 0.2 µM): 0.976
viability ([2]; 1 µM): 0.933
viability ([2]; 5 µM): 0.904
viability ([3]; 0.008 µM): 0.847
viability ([3]; 0.04 µM): 0.602
viability ([3]; 0.2 µM): 0.463
viability ([3]; 1 µM): 0.633
viability ([3]; 5 µM): 0.372
viability ([4]; 0.008 µM): 0.811
viability ([4]; 0.04 µM): 0.644
viability ([4]; 0.2 µM): 0.488
viability ([4]; 1 µM): 0.496
viability ([4]; 5 µM): 0.461
viability ([5]; 0.008 µM): 0.913
viability ([5]; 0.04 µM): 0.956
viability ([5]; 0.2 µM): 0.874
viability ([5]; 1 µM): 0.946
viability ([5]; 5 µM): 0.981
viability ([6]; 0.008 µM): 1.03
viability ([6]; 0.04 µM): 0.976
viability ([6]; 0.2 µM): 0.982
viability ([6]; 1 µM): 0.963
viability ([6]; 5 µM): 0.986
viability ([7]; 0.008 µM): 0.897
viability ([7]; 0.04 µM): 0.688
viability ([7]; 0.2 µM): 0.617
viability ([7]; 1 µM): 0.614
viability ([7]; 5 µM): 0.556
viability ([8]; 0.008 µM): 1.04
viability ([8]; 0.04 µM): 1.24
viability ([8]; 0.2 µM): 0.961
viability ([8]; 1 µM): 0.98
viability ([8]; 5 µM): 0.84
viability ([9]; 0.008 µM): 1.02
viability ([9]; 0.04 µM): 0.973
viability ([9]; 0.2 µM): 0.992
viability ([9]; 1 µM): 1
viability ([9]; 5 µM): 1.01
viability ([10]; 0.008 µM): 1.03
viability ([10]; 0.04 µM): 1.06
viability ([10]; 0.2 µM): 0.999
viability ([10]; 1 µM): 1.05
viability ([10]; 5 µM): 1
viability ([11]; 0.008 µM): 0.956
viability ([11]; 0.04 µM): 0.688
viability ([11]; 0.2 µM): 0.572
viability ([11]; 1 µM): 0.524
viability ([11]; 5 µM): 0.529
viability ([12]; 0.008 µM): 1.1
viability ([12]; 0.04 µM): 1.05
viability ([12]; 0.2 µM): 0.883
viability ([12]; 1 µM): 0.819
viability ([12]; 5 µM): 0.719
viability ([13]; 0.008 µM): 0.943
viability ([13]; 0.04 µM): 1.29
viability ([13]; 0.2 µM): 1.22
viability ([13]; 1 µM): 0.897
viability ([13]; 5 µM): 1.12
viability ([14]; 0.008 µM): 1.09
viability ([14]; 0.04 µM): 1.08
viability ([14]; 0.2 µM): 1.08
viability ([14]; 1 µM): 1.04
viability ([14]; 5 µM): 1.01
viability ([15]; 0.008 µM): 1.1
viability ([15]; 0.04 µM): 1.07
viability ([15]; 0.2 µM): 1.08
viability ([15]; 1 µM): 1.05
viability ([15]; 5 µM): 1.05
viability ([16]; 0.008 µM): 0.956
viability ([16]; 0.04 µM): 0.99
viability ([16]; 0.2 µM): 0.97
viability ([16]; 1 µM): 1
viability ([16]; 5 µM): 1.05
viability ([17]; 0.008 µM): 1
viability ([17]; 0.04 µM): 0.963
viability ([17]; 0.2 µM): 0.926
viability ([17]; 1 µM): 0.956
viability ([17]; 5 µM): 0.87
viability ([18]; 0.008 µM): 1.13
viability ([18]; 0.04 µM): 0.965
viability ([18]; 0.2 µM): 0.862
viability ([18]; 1 µM): 0.817
viability ([18]; 5 µM): 0.688
viability ([19]; 0.008 µM): 1.14
viability ([19]; 0.04 µM): 1.09
viability ([19]; 0.2 µM): 1.08
viability ([19]; 1 µM): 1.11
viability ([19]; 5 µM): 1.11
viability ([20]; 0.008 µM): 1.02
viability ([20]; 0.04 µM): 0.803
viability ([20]; 0.2 µM): 0.832
viability ([20]; 1 µM): 0.764
viability ([20]; 5 µM): 0.736

CC(C)(C)C[C@@H]1N[C@@H](C(=O)N[C@H]2CC[C@H](O)CC2)[C@H](c2cccc(Cl)c2F)[C@]12C(=O)Nc1cc(Cl)ccc12 [MI-773]
viability ([1]; 0.008 µM): 1.01
viability ([1]; 0.04 µM): 0.992
viability ([1]; 0.2 µM): 0.799
viability ([1]; 1 µM): 0.472
viability ([1]; 5 µM): 0.0627
viability ([2]; 0.008 µM): 1
viability ([2]; 0.04 µM): 0.88
viability ([2]; 0.2 µM): 0.701
viability ([2]; 1 µM): 0.366
viability ([2]; 5 µM): 0.151
viability ([3]; 0.008 µM): 0.915
viability ([3]; 0.04 µM): 0.761
viability ([3]; 0.2 µM): 0.481
viability ([3]; 1 µM): 0.194
viability ([3]; 5 µM): 0.0491
viability ([4]; 0.008 µM): 0.937
viability ([4]; 0.04 µM): 0.938
viability ([4]; 0.2 µM): 0.7
viability ([4]; 1 µM): 0.465
viability ([4]; 5 µM): 0.218
viability ([5]; 0.008 µM): 0.96
viability ([5]; 0.04 µM): 0.971
viability ([5]; 0.2 µM): 0.937
viability ([5]; 1 µM): 0.976
viability ([5]; 5 µM): 1.02
viability ([6]; 0.008 µM): 1.06
viability ([6]; 0.04 µM): 0.896
viability ([6]; 0.2 µM): 0.806
viability ([6]; 1 µM): 0.877
viability ([6]; 5 µM): 0.834
viability ([7]; 0.008 µM): 1
viability ([7]; 0.04 µM): 0.966
viability ([7]; 0.2 µM): 0.648
viability ([7]; 1 µM): 0.46
viability ([7]; 5 µM): 0.215
viability ([8]; 0.008 µM): 1.03
viability ([8]; 0.04 µM): 0.9
viability ([8]; 0.2 µM): 0.696
viability ([8]; 1 µM): 0.296
viability ([8]; 5 µM): 0.117
viability ([9]; 0.008 µM): 1.06
viability ([9]; 0.04 µM): 0.997
viability ([9]; 0.2 µM): 1.09
viability ([9]; 1 µM): 0.99
viability ([9]; 5 µM): 1.09
viability ([10]; 0.008 µM): 1
viability ([10]; 0.04 µM): 1.05
viability ([10]; 0.2 µM): 1.11
viability ([10]; 1 µM): 1.02
viability ([10]; 5 µM): 1.12
viability ([11]; 0.008 µM): 1.08
viability ([11]; 0.04 µM): 0.972
viability ([11]; 0.2 µM): 0.849
viability ([11]; 1 µM): 0.481
viability ([11]; 5 µM): 0.204
viability ([12]; 0.008 µM): 0.954
viability ([12]; 0.04 µM): 0.858
viability ([12]; 0.2 µM): 0.771
viability ([12]; 1 µM): 0.568
viability ([12]; 5 µM): 0.0958
viability ([13]; 0.008 µM): 0.915
viability ([13]; 0.04 µM): 0.744
viability ([13]; 0.2 µM): 0.789
viability ([13]; 1 µM): 0.897
viability ([13]; 5 µM): 0.903
viability ([14]; 0.008 µM): 0.97
viability ([14]; 0.04 µM): 0.819
viability ([14]; 0.2 µM): 0.593
viability ([14]; 1 µM): 0.439
viability ([14]; 5 µM): 0.0647
viability ([15]; 0.008 µM): 1.05
viability ([15]; 0.04 µM): 0.949
viability ([15]; 0.2 µM): 1
viability ([15]; 1 µM): 0.879
viability ([15]; 5 µM): 0.441
viability ([16]; 0.008 µM): 1.02
viability ([16]; 0.04 µM): 0.934
viability ([16]; 0.2 µM): 0.957
viability ([16]; 1 µM): 0.947
viability ([16]; 5 µM): 0.722
viability ([17]; 0.008 µM): 1
viability ([17]; 0.04 µM): 0.99
viability ([17]; 0.2 µM): 0.937
viability ([17]; 1 µM): 0.849
viability ([17]; 5 µM): 0.694
viability ([18]; 0.008 µM): 1.11
viability ([18]; 0.04 µM): 0.915
viability ([18]; 0.2 µM): 0.755
viability ([18]; 1 µM): 0.424
viability ([18]; 5 µM): 0.347
viability ([19]; 0.008 µM): 1.07
viability ([19]; 0.04 µM): 1.05
viability ([19]; 0.2 µM): 0.995
viability ([19]; 1 µM): 0.705
viability ([19]; 5 µM): 0.246
viability ([20]; 0.008 µM): 1.08
viability ([20]; 0.04 µM): 0.944
viability ([20]; 0.2 µM): 0.986
viability ([20]; 1 µM): 0.854
viability ([20]; 5 µM): 0.68

— the supplement of paper PMC10733146
